Patent US20220081481A1, “USE OF AGENTS CAPABLE OF INDUCING LC3-ASSOCIATED PHAGOCYTOSIS FOR TREATING SUSTAINED INFLAMMATION IN PATIENTS SUFFERING FROM CHRONIC LIVER DISEASE” (INSERM (INSTITUT NATIONAL DE LA SANTÉ ET DE LA RECHERCHE …, priority 2019, published 2022)
Ends that are not written are not given here.

Test system: blood monocytes from patients with cirrhosis
Assay: LC3+ pHrodo+ phagosome (LAPosome) number in blood monocytes from patients with cirrhosis
Assay type: cell-based, human
Conditions: 10 mM 3-MA, 30 μM N8 peptide, data not shown
Procedure: Human blood monocytes. Human monocytes were isolated from freshly isolated PBMC, using EasySep human monocyte enrichment kit (STEMCELL Technologies, 19058), and CD14+CD16+ monocytes were isolated by immunomagnetic negative selection according to the manufacturer's instructions. Cell treatment. Human monocytes, THP1-XBlueTM-CD14 (Invivogen, Catalog #[…] THP1-FcγRIIA+-CD14+(kindly provided by Novimmune) monocytes were used. When indicated cells were exposed to either 30 μM chloroquine diphosphate (Sigma, C6628), 10 mM 3-Methyladenine (3-MA, Sigma, M9281-100 mg), 10 mM Diphenyleneiodonium chloride (DPI, Sigma, D2926-10 mg), or 10 mg/ml IVIg (Privigen, 100 mg/ml) for 4 hrs at 37° C., as indicated. […] For quantification, images were acquired by confocal microscopy (Confocal Zeiss LSM 780) equipped with a 63× oil immersion objective. For each condition, 10 to 15 fields were randomly selected, and the number of LC3+ signal localized around pHrodo+ phagosomes (LC3+ pHrodo+) was quantified in at least 40 to 60 cells. Unless otherwise indicated, results are expressed as number of LC3+ phagosomes/individual normalized to 100 cells. […]

Molecule | LC3+ phagosome number
Cn1cnc(N)c2ncnc1-2 [3-MA, 3-Methyladenine] | significant reduction
N8 peptide: Tat-conjugated peptide of eight N-terminal amino acids (3-10) of p22phox that blocks the Rubicon-p22phox interaction (QIEWAMWA; also: Tat cell-penetrating peptide conjugate, attachment not given here; UniProt P13498 3-10, looked up, fragment) | significant reduction
